# Experimental data from patent US11077090B2, “Compounds and compositions and uses thereof” (Sunovion Pharmaceuticals Inc., priority 2016, dated 2021).
# Read-outs that look alike come from different tables or passages of the source.
# System: compound-treated mice
# Experiment: Neuropharmacological assay (SmartCube): behavioral activity signature and minimal effective dose
# Type: in vivo
# Details: for minimal effective dose: Mus musculus, ip, MED = dose having 50% or more total activity; for AD: ADHD (probability of activity signature) / AG: analgesic (probability of activity signature) / AX: anxiolytic (probability of activity signature) / CE: cognitive enhancer (probability of activity signature) / DP: anti-depressant (probability of activity signature) / MS: mood stabilizer (probability of activity signature) / PS: anti-psychotic (probability of activity signature) / SD: sedative hypnotic (probability of activity signature) / UN: uncharacterized CNS activity (probability of activity signature): i.p. 15 min before test, most efficacious dose(s)
# From the text: Neurosci. 2011 Sep. 9; 5:103 (doi: 10.3389/fnins.2011.00103) (“Roberds”). As reported in Roberds, because psychiatric diseases generally result from disorders of cell-cell communication or circuitry, intact systems are useful in detecting improvement in disease-relevant endpoints. These endpoints are typically behavioral in nature, often requiring human observation and interpretation. To facilitate testing of multiple compounds for behavioral effects relevant to psychiatric disease, PsychoGenics, Inc. (Tarrytown, N.Y., “PGI”) developed SmartCube™, an automated system in which behaviors of compound-treated mice are captured by digital video and analyzed with computer algorithms. (D. Brunner et al., Drug Discov. Today 2002, 7:S107-S112). PGI Analytical Systems uses data from SmartCube™ to compare the behavioral signature of a test compound to a database of behavioral signatures obtained using a large set of diverse reference compounds. (The composition of the database as well as validation of the method is further described in Roberds). In this way, the neuropharmacological effects of a test compound can be predicted by similarity to major classes of compounds, such as antipsychotics, anxiolytics and antidepressants.
# The SmartCube™ system produces an activity signature indicating the probability that the activity of the test compound at the administered dose matches a given class of neuropharmacological agents. (See, e.g., Roberds, FIGS. 2 and 3). The test compound is simultaneously compared against multiple classes of agents; thus, a separate probability is generated for each behavioral effect measured (e.g., anxiolytic activity, analgesic activity, etc.). In the table below, these probabilities are reported for each behavioral effect measured as follows:
# where LOQ is the limit of quantification.
# Provided compounds were dissolved in a mixture of Pharmasolve™ (N-methyl-2-pyrrolidone), polyethylene glycol and propylene glycol, and were injected i.p. 15 min. before the behavioral test. For each compound, injections were administered at 3 different doses. For each behavioral effect measured, results for the most efficacious dose(s) are presented. In the table below, DP: anti-depressant; AX: anxiolytic; SD: sedative hypnotic; PS: anti-psychotic; MS: mood stabilizer; AD: ADHD; CE: cognitive enhancer; AG: analgesic; UN: uncharacterized CNS activity.
# The potency of many of the compounds in the table was also determined in the SmartCube™ system. Test compounds were routinely examined at dose levels of 0.3, 1, 3, 10 and 30 mg per kg (mpk), although the dose range was increased or decreased if necessary to obtain a full dose response curve. A compound's minimal effective dose (MED) is a measure of the compounds potency. The MED was defined as the dose (in mpk) having 50% or more total activity in SmartCube.
# [1] = read-out: Potency: minimal effective dose (MED), binned
# [2] = read-out: Potency: minimal effective dose (MED)
smiles,measurement,setting,value
CCCN[C@H]1c2ccccc2CO[C@@H]1C.Cl [Example 268],minimal effective dose,[1],3 to 10 mg/kg
same,AD: ADHD (probability of activity signature),,++ (5% ≤ ++ <25%)
same,AG: analgesic (probability of activity signature),,+ (LOQ ≤ + <5%)
same,AX: anxiolytic (probability of activity signature),,++ (5% ≤ ++ <25%)
same,CE: cognitive enhancer (probability of activity signature),,+ (LOQ ≤ + <5%)
same,DP: anti-depressant (probability of activity signature),,+ (LOQ ≤ + <5%)
same,MS: mood stabilizer (probability of activity signature),,++ (5% ≤ ++ <25%)
same,PS: anti-psychotic (probability of activity signature),,+++ (25% ≤ +++ <50%)
same,SD: sedative hypnotic (probability of activity signature),,++ (5% ≤ ++ <25%)
same,UN: uncharacterized CNS activity (probability of activity signature),,++ (5% ≤ ++ <25%)
C[C@@H]1OCc2ccc3c(c2[C@@H]1N)CCCO3.Cl [Example 248],minimal effective dose,[1],10 to 30 mg/kg
same,AD: ADHD (probability of activity signature),,+ (LOQ ≤ + <5%)
same,AG: analgesic (probability of activity signature),,++ (5% ≤ ++ <25%)
same,AX: anxiolytic (probability of activity signature),,++ (5% ≤ ++ <25%)
same,CE: cognitive enhancer (probability of activity signature),,++ (5% ≤ ++ <25%)
same,DP: anti-depressant (probability of activity signature),,+ (LOQ ≤ + <5%)
same,MS: mood stabilizer (probability of activity signature),,+ (LOQ ≤ + <5%)
same,PS: anti-psychotic (probability of activity signature),,+ (LOQ ≤ + <5%)
same,SD: sedative hypnotic (probability of activity signature),,+ (LOQ ≤ + <5%)
same,UN: uncharacterized CNS activity (probability of activity signature),,+++ (25% ≤ +++ <50%)
CCNC1COCc2ccc(C)c(C)c21.Cl (stereo not shown) [Example 58],minimal effective dose,[2],3 to 10 mg/kg
same,AD: ADHD (probability of activity signature),,+ (LOQ ≤ + <5%)
same,AG: analgesic (probability of activity signature),,++ (5% ≤ ++ <25%)
same,AX: anxiolytic (probability of activity signature),,++ (5% ≤ ++ <25%)
same,CE: cognitive enhancer (probability of activity signature),,++ (5% ≤ ++ <25%)
same,DP: anti-depressant (probability of activity signature),,++ (5% ≤ ++ <25%)
same,MS: mood stabilizer (probability of activity signature),,+ (LOQ ≤ + <5%)
same,PS: anti-psychotic (probability of activity signature),,++ (5% ≤ ++ <25%)
same,SD: sedative hypnotic (probability of activity signature),,++ (5% ≤ ++ <25%)
same,UN: uncharacterized CNS activity (probability of activity signature),,+++ (25% ≤ +++ <50%)
Cl.NC1COCc2cc(F)ccc21 (stereo not shown) [Example 3],minimal effective dose,[2],10 to 30 mg/kg
same,AD: ADHD (probability of activity signature),,+ (LOQ ≤ + <5%)
same,AG: analgesic (probability of activity signature),,++ (5% ≤ ++ <25%)
same,AX: anxiolytic (probability of activity signature),,++ (5% ≤ ++ <25%)
same,CE: cognitive enhancer (probability of activity signature),,+ (LOQ ≤ + <5%)
same,DP: anti-depressant (probability of activity signature),,++ (5% ≤ ++ <25%)
same,MS: mood stabilizer (probability of activity signature),,+ (LOQ ≤ + <5%)
same,PS: anti-psychotic (probability of activity signature),,+ (LOQ ≤ + <5%)
same,SD: sedative hypnotic (probability of activity signature),,++ (5% ≤ ++ <25%)
same,UN: uncharacterized CNS activity (probability of activity signature),,+++ (25% ≤ +++ <50%)
"CC[C@@H]1OCc2ccccc2[C@@H]1N(C)C.Cl (single isomer, unassigned) [Example 260]",minimal effective dose,[1],3 to 10 mg/kg
same,AD: ADHD (probability of activity signature),,++ (5% ≤ ++ <25%)
same,AG: analgesic (probability of activity signature),,+ (LOQ ≤ + <5%)
same,AX: anxiolytic (probability of activity signature),,+ (LOQ ≤ + <5%)
same,CE: cognitive enhancer (probability of activity signature),,+ (LOQ ≤ + <5%)
same,DP: anti-depressant (probability of activity signature),,+ (LOQ ≤ + <5%)
same,MS: mood stabilizer (probability of activity signature),,++ (5% ≤ ++ <25%)
same,PS: anti-psychotic (probability of activity signature),,+ (LOQ ≤ + <5%)
same,SD: sedative hypnotic (probability of activity signature),,++ (5% ≤ ++ <25%)
same,UN: uncharacterized CNS activity (probability of activity signature),,+ (LOQ ≤ + <5%)
Cc1ccc2c(c1)CO[C@H](C)[C@@H]2N [Example 190],minimal effective dose,[1],3 to 10 mg/kg
same,AD: ADHD (probability of activity signature),,+ (LOQ ≤ + <5%)
same,AG: analgesic (probability of activity signature),,+ (LOQ ≤ + <5%)
same,AX: anxiolytic (probability of activity signature),,++ (5% ≤ ++ <25%)
same,CE: cognitive enhancer (probability of activity signature),,++ (5% ≤ ++ <25%)
same,DP: anti-depressant (probability of activity signature),,+ (LOQ ≤ + <5%)
same,MS: mood stabilizer (probability of activity signature),,+ (LOQ ≤ + <5%)
same,PS: anti-psychotic (probability of activity signature),,++ (5% ≤ ++ <25%)
same,SD: sedative hypnotic (probability of activity signature),,++ (5% ≤ ++ <25%)
same,UN: uncharacterized CNS activity (probability of activity signature),,++++ (50% ≤ ++++)
COc1cccc2c1COCC2N.Cl (stereo not shown) [Example 24],minimal effective dose,[2],10 to 30 mg/kg
same,AD: ADHD (probability of activity signature),,+ (LOQ ≤ + <5%)
same,AG: analgesic (probability of activity signature),,+ (LOQ ≤ + <5%)
same,AX: anxiolytic (probability of activity signature),,++ (5% ≤ ++ <25%)
same,CE: cognitive enhancer (probability of activity signature),,+ (LOQ ≤ + <5%)
same,DP: anti-depressant (probability of activity signature),,++ (5% ≤ ++ <25%)
same,MS: mood stabilizer (probability of activity signature),,+ (LOQ ≤ + <5%)
same,PS: anti-psychotic (probability of activity signature),,++ (5% ≤ ++ <25%)
same,SD: sedative hypnotic (probability of activity signature),,++ (5% ≤ ++ <25%)
same,UN: uncharacterized CNS activity (probability of activity signature),,+ (LOQ ≤ + <5%)
C#CCN[C@H]1c2ccccc2CO[C@@H]1C.Cl [Example 270],minimal effective dose,[1],< 3 mg/kg
same,AD: ADHD (probability of activity signature),,++ (5% ≤ ++ <25%)
same,AG: analgesic (probability of activity signature),,+ (LOQ ≤ + <5%)
same,AX: anxiolytic (probability of activity signature),,++ (5% ≤ ++ <25%)
same,CE: cognitive enhancer (probability of activity signature),,+ (LOQ ≤ + <5%)
same,DP: anti-depressant (probability of activity signature),,++ (5% ≤ ++ <25%)
same,MS: mood stabilizer (probability of activity signature),,++++ (50% ≤ ++++)
same,PS: anti-psychotic (probability of activity signature),,+ (LOQ ≤ + <5%)
same,SD: sedative hypnotic (probability of activity signature),,++ (5% ≤ ++ <25%)
same,UN: uncharacterized CNS activity (probability of activity signature),,++ (5% ≤ ++ <25%)
"C[C@@H]1OCc2ccc3ccccc3c2[C@@H]1N.Cl (single isomer, unassigned) [Example 91]",minimal effective dose,[2],10 to 30 mg/kg
same,AD: ADHD (probability of activity signature),,+ (LOQ ≤ + <5%)
same,AG: analgesic (probability of activity signature),,++ (5% ≤ ++ <25%)
same,AX: anxiolytic (probability of activity signature),,+ (LOQ ≤ + <5%)
same,CE: cognitive enhancer (probability of activity signature),,++ (5% ≤ ++ <25%)
same,DP: anti-depressant (probability of activity signature),,+ (LOQ ≤ + <5%)
same,MS: mood stabilizer (probability of activity signature),,+ (LOQ ≤ + <5%)
same,PS: anti-psychotic (probability of activity signature),,++ (5% ≤ ++ <25%)
same,SD: sedative hypnotic (probability of activity signature),,++ (5% ≤ ++ <25%)
same,UN: uncharacterized CNS activity (probability of activity signature),,+++ (25% ≤ +++ <50%)
"C[C@@H]1OCc2ccccc2[C@@H]1N (single isomer, unassigned) [Example 153]",minimal effective dose,[2],3 to 10 mg/kg
same,AD: ADHD (probability of activity signature),,+ (LOQ ≤ + <5%)
same,AG: analgesic (probability of activity signature),,++ (5% ≤ ++ <25%)
same,AX: anxiolytic (probability of activity signature),,++ (5% ≤ ++ <25%)
same,CE: cognitive enhancer (probability of activity signature),,++ (5% ≤ ++ <25%)
same,DP: anti-depressant (probability of activity signature),,+ (LOQ ≤ + <5%)
same,MS: mood stabilizer (probability of activity signature),,+ (LOQ ≤ + <5%)
same,PS: anti-psychotic (probability of activity signature),,++ (5% ≤ ++ <25%)
same,SD: sedative hypnotic (probability of activity signature),,+ (LOQ ≤ + <5%)
same,UN: uncharacterized CNS activity (probability of activity signature),,+++ (25% ≤ +++ <50%)
